This note sets out measurements from ChEMBL document CHEMBL3507680, “University of Dundee, Gates Library screen for HepG2 cell viability”.

The data set is described as follows: Human HepG2 cell viability assay in 384 well format. It counts as toxicity, cell-based. To be noted: HepG2 cells, read-out: Inhibition. Details: dose 125 nL, time 70.5 hour; concentration not given beside the values.

As for `CC(C)N(C(=O)CCc1cccc(F)c1)C1CCOCC1`, the cytotoxicity at 70.5 h was -4.3%.
As to `CC(C)c1noc(-c2ccc(NC(=O)NCC(O)C(C)C)cc2)n1` (configuration not stated), the cytotoxicity at 70.5 h is -7.09%.
As for `CC(=O)N(C)Cc1cccc(NC(=O)N(C)Cc2nccs2)c1`, the figure is -4.8%; as for `CCc1cnc(NC(=O)NC2CCN(C3CCCC3)CC2)s1`, -7.06%.
Consider `O=C(c1c[nH]c2ccccc2c1=O)N1CCSCC1`, for which the cytotoxicity at 70.5 h was -6.3%.
Consider `O=C(c1c(F)cc(Br)cc1F)N1CCc2cnccc21`, for which the cytotoxicity at 70.5 h was -5.62%.
For the compound `O=C(c1c(O)cc(F)cc1F)N1CCc2cnccc21`, the cytotoxicity at 70.5 h was determined as 0.9%.
Then `CC(C)CSCCCNC(=O)C1CCOC1` (configuration not stated), with -5.76%; and `Cc1cc(CNCCNS(C)(=O)=O)sc1Br`, with 4.81%.
Consider `CC(NCc1cccs1)c1ccc(OCc2nccn2C)cc1` (configuration not stated), for which the cytotoxicity at 70.5 h was -4.31%.
Turning to `CC(=O)N(C)Cc1cccc(NC(=O)N(C)CCc2cccs2)c1`, the cytotoxicity at 70.5 h was 11.4%.
As for `Cc1cccc(CC(=O)Nc2cccnc2N2CCC(CO)CC2)c1`, the figure is -2.43%; as for `Cc1[nH]ncc1CCCNC(=O)N1CCOC(C)C1` (configuration not stated), -5.97%.
On to `COCCC1(CNC(=O)NCC2CN(C)CCN2C)CCC1` (configuration not stated), for which the cytotoxicity at 70.5 h is -2.66%.
Consider `Cc1cc(CN2CCN(C(=O)NCCCc3cn[nH]c3C)CC2)on1`, for which the cytotoxicity at 70.5 h was -4.02%.
Then `CSCCC(NC(N)=O)C(=O)NCc1c(C)nn(-c2ccccc2)c1C` (configuration not stated), with -4.27%; and `CCNC(=O)NC(=O)CN1CCOC(c2cccc(Br)c2)C1` (configuration not stated), with -8.56%.
Regarding `Cc1cccc(C(C)(C)CNC(=O)CN(C)S(=O)(=O)c2cccnc2)c1`, the cytotoxicity at 70.5 h is -15.3%.
As for `CN(CCc1nc2ccccc2c(=O)[nH]1)CCC(F)(F)F`, the figure is -6.6%; as for `CC(=O)N1CCC(NC(=O)NCCCc2cn[nH]c2C)CC1`, 0.436%; as for `NS(=O)(=O)c1cnc(NCC2(c3cccc(F)c3)CCOCC2)s1`, -0.912%.
As for `NS(=O)(=O)c1cnc(NCC2(c3ccccc3)CCC2)s1`, the figure is -2.17%.
For `CCN1CCNC(=O)C12CCN(C(=O)Cc1ccccn1)CC2`, the cytotoxicity at 70.5 h was -1.44%.
For the compound `COc1cc(N2CCC3(CC2)CN(CCO)c2ccccc23)ncn1`, the cytotoxicity at 70.5 h was -0.577%.
Then `O=c1ccc2c([nH]1)CCC(NS(=O)(=O)C1CC1)C2` (configuration not stated), with -4.74%; and `COCCn1c2c(ccc1=O)CCN(C(=O)C1CC=CC1)CC2`, with -2.63%.
As for `CN(C)Cc1nc(-n2cnc(C(=O)NCC3CC3)c2)n2ccccc12`, the figure is -3.22%; as for `COCCn1c2c(ccc1=O)CCN(C(=O)NC1CC1)CC2`, -3.9%; as for `Cc1ccc2c(n1)N(Cc1cccnc1)CCN(Cc1cnn(C)c1)C2`, -2.59%.
Regarding `COCC(=O)N1CCc2ccc(=O)n(CC3CC3)c2CC1`, the cytotoxicity at 70.5 h is -2.86%.
Then `CC(C)NC(=O)N1CCC2(CC1)Cc1ccccc1CNC2=O`, with -4.51%; and `Cc1cc(C(=O)NCC2OCCc3cn(CC4CC4)nc32)c(C)[nH]1` (configuration not stated), with -3.07%; and `COCCn1cc2c(n1)C(CNC(=O)c1cc(C)[nH]c1C)OCC2` (configuration not stated), with -2.66%.
As for `CN(C)Cc1nc(-n2cnc(C(=O)NC3CCCC3)c2)n2ccccc12`, the figure is -3.17%; as for `Cc1nc(CN2CCC3(C2)CN(C(=O)c2conc2C)C3)cs1`, -3.94%.
As to `O=C(c1ccccc1)N1CCOC2CNCC[C@H]21` (some centres not stated), the cytotoxicity at 70.5 h was -7.04%.
With `CC(C)NC(=O)c1cc2c(s1)CCN2c1ncccn1`, the cytotoxicity at 70.5 h is 3.85%.
On to `O=C(c1ccccc1)N1CCO[C@@H]2CNC[C@@H]21`, for which the cytotoxicity at 70.5 h was -5.73%.
Take `COCCNC(=O)C[C@@H]1COC[C@H]2CN(C(=O)COC)C[C@@H]12`: the cytotoxicity at 70.5 h was -8.18%.
As for `CCn1nnc2c1C(COC)CN(Cc1ccco1)C2` (configuration not stated), the figure is 39.7%.
As for `O=C(c1ccoc1)N1Cc2cnn(CC3CC3)c2C(COCC2CC2)C1` (configuration not stated), the figure is 16%.
`O=C(NC1CC1)N1C[C@@H]2CCN(C(=O)c3cscn3)[C@@H]2C1`: the cytotoxicity at 70.5 h was found to be 10.3%.
As for `CCN1Cc2ccccc2CC2(CCN(CC3CCC3)CC2)C1=O`, the figure is 11.7%; as for `Cc1cc(C(=O)NC2CCc3c(ccc(=O)n3CC3CC3)C2)no1` (configuration not stated), -6.82%.
`CCS(=O)(=O)N1CCN(CCOC)c2ncccc2C1`: the cytotoxicity at 70.5 h was -4.33%.
Then `Cn1nccc1-c1ncc(-c2cc(C(=O)O)n(CC3CC3)c2)cn1`, with 6.58%; and `Cn1ccnc1CN1CCC2(CC1)CC(N1CCCC1)c1ccccc12` (configuration not stated), with -4.57%; and `Cn1cc(-c2cnc(-c3ccnn3C)nc2)cc1C(=O)NC1CC1`, with -4.34%.
As for `CS(=O)(=O)N1C[C@@H]2CCN(C(=O)c3cscn3)[C@@H]2C1`, the figure is -2.23%; as for `COCCN1CCN(S(=O)(=O)C2CC2)Cc2cccnc21`, -5.48%.
`Cn1cc(CN2CCc3ccc(=O)n(CC4CC4)c3CC2)cn1`: the cytotoxicity at 70.5 h was 4.08%.
Then `Cc1cn2c(=O)c(-c3ccnc(N[C@@H](C)CO)n3)cnc2s1`, with -5.83%.
Then `COCCN1CC(=O)c2sc(NCc3ccccc3)nc2C1`, with 0.849%; and `OC[C@@H]1CCCN1c1nccc(-c2c[nH]nc2-c2ccncc2)n1`, with -2.39%.
As for `COc1ccc2[nH]cc(-c3ccnc(N4CCC(C)CC4)n3)c2c1`, the figure is 1.51%; as for `NS(=O)(=O)NCc1cc(-c2ccco2)n(CC(F)(F)F)n1`, -5.08%.
With `Cc1ncc(-c2ccnc(N[C@@H](C)CO)n2)c(C2CCCCC2)n1`, the cytotoxicity at 70.5 h was 24.8%.
As for `O=c1c(-c2ccnc(N3CCC[C@H]3CO)n2)cnc2sccn12`, the cytotoxicity at 70.5 h is -1.75%.
Regarding `CCNc1nc2c(s1)C(=O)CN(C(=O)NCc1ccccc1)C2`, the cytotoxicity at 70.5 h is -0.493%.
As for `CC(C)NC(=O)N1CC(=O)c2sc(NC3CCCCC3)nc2C1`, the cytotoxicity at 70.5 h worked out at 3.79%.
As to `OCCNc1nccc(-c2cn3nccc3nc2C2CCCCC2)n1`, the cytotoxicity at 70.5 h was -8.52%.
As for `COc1cccc(OC)c1-c1ccnc2cc(CC(=O)N(C)C)nn12`, the cytotoxicity at 70.5 h is -11.5%.
Then `CC(=O)Nc1nc(C)c(S(=O)(=O)NCCc2ccccn2)s1`, with -3.16%.
Then `CC(=O)Nc1nc(C)c(S(=O)(=O)NCCc2cccnc2)s1`, with 1.62%; and `CC(=O)N1CCC(n2nccc2-c2cnc(N3CCCC3)nc2)CC1`, with -9%; and `Cc1cn2c(=O)c(-c3ccnc(N4CCC[C@@H]4CO)n3)cnc2s1`, with -3.36%.
Then `COCCCNc1nc(CNC(=O)C2CCC2)cc(-c2ccco2)n1`, with -5.78%; and `CC(=O)N1CCC(n2nccc2-c2cnc(N(C)CCO)nc2)CC1`, with -6.31%; and `c1cc(-c2cn3nccc3nc2C2CCCCC2)nc(N2CCCC2)n1`, with -7.05%.
Turning to `NC(=O)[C@H]1CCCN(c2nccc(-c3c[nH]nc3-c3cccnc3)n2)C1`, the cytotoxicity at 70.5 h is -2.79%.
Then `COc1cccc(OC)c1-c1ccnc2cc(CC(=O)NC(C)C)nn12`, with -7.86%; and `O=C([C@H]1CCCN1)N1CC2(CCNCC2)c2cc(Cl)ccc21`, with 30%.
Then `O=C([C@@H]1CSCN1)N1CC2(CCNCC2)c2cc(Cl)ccc21`, with -3.25%.
As for `CC(C)N(C)Cc1cncc2c1CCN(C1CCOCC1)C2`, the figure is -6.55%; as for `CCOC1COC2(CCN(C(=O)c3cccc(C)n3)CC2)C1` (configuration not stated), -0.53%; as for `CNC(=O)[C@H]1C[C@@H]2CN(Cc3csc(C)n3)C[C@@H]2N1S(C)(=O)=O`, 27.8%.
As to `CN(C)CC(=O)N1CCC2(CC1)Cc1ccccc1CN(C)C2=O`, the cytotoxicity at 70.5 h was determined as 23.3%.
As for `CC(=O)N1CCC2(CC1)CN(C(=O)[C@@H]1CSCN1)c1ccc(Cl)cc12`, the figure is 1.24%.
As for `O=C(c1cscn1)N1CCCC2(CCN2Cc2cccc(F)c2)C1` (configuration not stated), the figure is -0.0272%; as for `O=C(O)[C@]12CCCN(CC3CCOC3)C[C@H]1CN(c1ncccn1)C2` (some centres not stated), -5.74%.
Turning to `CCOCc1nn(C)c2c1CN(Cc1cccs1)CC2`, the cytotoxicity at 70.5 h was -7.58%.
As for `O=C(c1ccsc1)N1CCO[C@@H]2CN(Cc3nccs3)C[C@@H]2C1`, the figure is -3.17%; as for `Cc1cnc(N2CCC3(CCN(Cc4csc(C)n4)C3=O)C2)nc1` (configuration not stated), -5.87%; as for `Cn1cccc1C(=O)N1CCO[C@@H]2CN(Cc3nccs3)C[C@@H]2C1`, -6.7%.
As for `Cc1noc(C)c1CN1CCOCC12CCN(c1ncccn1)CC2`, the figure is -8.87%; as for `N#Cc1ccc(N2CCC3(CC2)CC(N2CCOCC2)CO3)cc1` (configuration not stated), -6.28%; as for `CN(C)C(=O)Cn1c2c(ccc1=O)CCN(Cc1cnn(C)c1)CC2`, 2.17%.
As for `Cc1nc(CN2CCO[C@@H]3CC(COc4ccccn4)C[C@H]32)cs1` (some centres not stated), the figure is -1.88%; as for `Cc1cc(C(=O)N2CC[C@H]3[C@H](C[C@@H](CN4CCCC4)N3C)C2)c(C)o1`, 1.81%.
Consider `c1cnc(N2CCN3C[C@H](Oc4cncnc4)C[C@H]3C2)nc1`, for which the cytotoxicity at 70.5 h was -1.15%.
As for `CN(C)C(=O)C1CCN(C2CCN(CC3CCC3)CC2)CC1`, the figure is -1.7%; as for `Cc1oncc1C(=O)N1CC[C@H]2[C@H](C[C@@H](CN(C)C)N2CC2CC2)C1`, -0.907%.
As to `CC(C)CC(=O)N1CC[C@H]2N(C)CC[C@@]2(C(=O)Nc2cccnc2)CC1`, the cytotoxicity at 70.5 h was -9.05%.
Consider `CN(C)CCOCc1cncc2c1CCN(C(=O)C1CCOCC1)C2`, for which the cytotoxicity at 70.5 h was -6.54%.
Then `Cc1noc(C)c1CN1CCn2cc(CNc3ccccn3)nc2C1`, with 5.28%; and `O=C(O)c1c(-c2cncnc2)ncc2c1CCN(Cc1cccnc1)C2`, with 2.19%.
Then `CN(C)CCOCc1cncc2c1CCN(C1CCOCC1)C2`, with -11.2%.
